In the assay the test system is wild house mice, Mus musculus. Kind of assay: Field experiments with paired trap boxes: trap captures of wild mice. The format is in vivo. The source says: Two field experiments were run in parallel from Feb. 4, 2016 to Apr. 14, 2016 in Vancouver B.C. to evaluate the effect of synthetic androstenone (Experiment 7) and of synthetic progesterone and estrogen (Experiment 8) on trap captures of wild mice. Experimental replicates were set up as depicted in FIG. 7 along the interior walls and bird feeder areas of a plant and bird conservatory maintained under tropical conditions. Each replicate consisted of a pair of trap boxes (PROTECTA® Mouse, Bell Laboratories Inc., Madison, Wis. 53704, USA), with 50-cm spacing between boxes in each pair, and at least 2 m between pairs.
In Experiments 7 and 8, each box in each pair contained a snap trap (1) (FIG. 7) that was baited with a food lure (Musso et al. 2014). In Experiment 7, the trap box was also baited with the synthetic two-component sex pheromone of male mice (3,4-dehydro-exo-brevicomin and 2-sec-butyl-4,5-dihydrothiazole). The compounds were formulated in 10 g of mineral oil and dispensed from a custom-made scintillation vial (2) (FIG. 7). Each box in each pair also contained a piece of Whatman #1 filter paper that by random assignment was treated with 4 μg of synthetic androstenone dissolved in 50 μl ether (3a) or 50 μl ether (control; 4). […]
All boxes and snap traps in both experiments were checked every 48 h to 72 h, and test stimuli (food lure, male-specific pheromone blend in mineral oil, filter paper with or without hormones) were replaced at each visit.
Mouse captures in treatment and control traps were compared against an expected 50:50 distribution using χ^2 tests with Yates' correction for continuity (α=0.05). Replicates with captures in both trap boxes of a pair are not included in the graphical illustration and statistical analyses of data.
Four field experiments were run in Vancouver B.C. to evaluate the effect of synthetic androstenone and synthetic testosterone on captures of female wild mice and rats in combination with species-specific male sex pheromone blend. Experimental replicates were set up along the interior and exterior walls of buildings as depicted in FIG. 7. Experiment 15 evaluated captures of wild mice in trap boxes baited with high-levels of androstenone; Experiment 16 evaluated captures of wild rats in traps baited with high-levels of androstenone; Experiment 17 evaluated captures of wild mice in traps baited with low-levels of testosterone; and Experiment 18 evaluated captures of wild mice in traps baited with low-levels of androstenone. Experiment 15 was run from Feb. 4, 2016 to Apr. 14, 2016. Experiment 16 was run from Feb. 26, 2016 to Sep. 19, 2016. Experiments 17 and 18 were run in parallel from Jun. 2, 2016 to Sep. 8, 2016.
Each replicate of Experiments 15 to 18 consisted of a pair of trap boxes (Mice: PROTECTA® Mouse, Bell Laboratories Inc., Madison, Wis. 53704, USA; Rats: PROTECTA® Sidekick™; Bell Laboratories Inc., Madison, Wis. 53704), with 50-cm spacing between boxes in each pair, and at least 2 m between pairs. Each trap box contained an armed snap trap (1, Mice: Victor® Easy Set® Mouse Trap; Rats: Victor® Easy Set® Rat Trap; Woodstream Corp, Lititz, Pa. 17543, USA) baited with a cereal-based food bait and a scintillation vial (2) containing synthetic sex pheromone blends. Each box in each pair also contained a treatment stimulus that consisted of a piece of Whatman #1 filter paper (3a) that by random assignment was treated with: 4 μg of synthetic androstenone dissolved in 50 μl ether (Experiments 15 and 16); 750 μg of synthetic testosterone dissolved in 50 μl ether (Experiment 17); or 750 μg of synthetic androstenone dissolved in 50 μl ether (Experiment 18). The corresponding box in each pair contained a control stimulus which consisted of a piece of Whatman #1 filter paper (3b) treated with 50 μl ether. […]

Setting [1] is: Experiment 7, 4 μg synthetic androstenone, boxes also with food lure and male mouse sex pheromone.
Where [2] appears, read: Experiment 15, 4 μg synthetic androstenone, with food bait and male mouse sex pheromone blend.
[3] abbreviates: Experiment 17, 750 μg synthetic testosterone (low-levels), with food bait and male mouse sex pheromone blend.

SMILES strings stand for the structures.

Turning to `C[C@]12CCC(=O)C[C@@H]1CC[C@@H]1[C@@H]2CC[C@]2(C)C=CC[C@@H]12` [androstenone, 5α-androst-16-en-3-one], the “captures of adult female mice vs control boxes” value under setting [1] is “significantly more” and the “captures of adult female mice vs control boxes” value under setting [2] is recorded as “significantly more”. Moreover, the “captures of juvenile female mice vs control boxes” value is listed as “significantly more” under setting [1] and “significantly more” under setting [2]. The “captures of juvenile and adult male mice” value reads like this: (Experiment 15, 4 μg synthetic androstenone) “no significant effect”; (Experiment 18, 750 μg synthetic androstenone (low-levels)) “no significant effect”. Besides, the “captures of female mice vs control traps” value (Experiment 18, 750 μg synthetic androstenone (low-levels), with food bait and male mouse sex pheromone blend) was “did not differ statistically”.
`C[C@]12CC[C@H]3[C@@H](CCC4=CC(=O)CC[C@@]43C)[C@@H]1CC[C@@H]2O` [testosterone, (8R,9S,10R,13S,14S,17S)-17-hydroxy-10,13-dimethyl-1,2,6,7,8,9,11,12,14,15,16,17-dodecahydrocyclopenta[a]phenanthren-3-one, reference compound]: under “Experiment 17, 750 μg synthetic testosterone (low-levels)”, the “captures of both adult and juvenile mice” value is “no significant effect”. Under setting [3], the “captures of adult female mice vs control traps” value is “significantly more” and the “captures of juvenile female mice vs control traps” value is “significantly more”.

For the origin of these results see patent publication US11185077B2, “Attractants for rodents” (priority 2016, dated 2021).
